Test [1] relates to Rat hepatocytes. Put plainly: Urea synthesis rate of rat hepatocytes (collagen sandwich) exposed to supplemented citrated human plasma. Format: cell-based. As for the experimental part:
(§1) Type I collagen was prepared from Lewis rat tail tendons as previously described in Dunn et al. (supra). […] Six-well culture plates were coated with 0.5 ml of collagen gelling solution and the coated plates were incubated at 37° C. for 1 hour to allow for gelation. The hepatocytes were suspended in culture medium and seeded at a density of 1.0×10^6 cell per well. The standard hepatocyte culture medium consisted of DMEM supplemented with 10% FBS, 0.5 U/ml insulin, 14 ng/ml glucagon, 20 ng/ml EGF, 7.5 μg/ml hydrocortisone, 200 U/ml penicillin, and 200 μg/ml streptomycin. After incubating at 37° C. in a humidified gas mixture of 90% air/10% CO2 for 24 hours, the culture medium was removed and the cells were overlaid with a second 0.5 ml layer of collagen gelling solution to form the collagen sandwich. After gelling for 45 minutes at 37° C., 1 ml of fresh medium was added. Fresh medium (1 ml) was supplied to the cultures daily after removal of the previous day's medium. The hepatocytes were cultured for 6 days in standard culture medium prior to plasma exposure.
(§2) Expired plasma from a blood bank was pooled, aliquoted, and kept frozen until used for experiments. Plasma supplements were prepared in concentrated form and added individually to plasma as described in the following examples.
(§3) In each set of experiments, components of the supplementation to be included or excluded were designated according to the result from prior experiments. On the 7th day after isolation, the culture medium was removed and hepatocytes were fed with 1 ml of plasma. Cells were fed with fresh plasma daily thereafter. Control cultures were maintained in hepatocyte culture medium throughout. For the hormone study only, the 6-day-old collagen double-gel cultures were washed 10 times with unsupplemented DMEM to remove residual hormones in the collagen gel, and twice with medium or plasma identical to the following experimental condition.
(§4) Culture supernatants were collected daily after a 24 hour culture period. […] A standard curve was derived using background culture medium prepared by incubation with an empty collagen gel for the same period as the cell culture, and chromatographically purified rat albumin (Cappel Laboratories). Urea concentration in standard culture medium and in plasma was measured by the specific reaction of diacetyl monoxime with urea (Blood Urea Nitrogen Assay Kit, Sigma Diagnostics).
(§5) Rates of secretion were normalized to the number of cells initially seeded. […] The statistical significance of observed differences was determined by two-way analysis of variance and post hoc Tukey's test. An alpha value of 5% was considered significant.

The subject of test [2] is Rat hepatocytes. Put plainly: Albumin synthesis rate of rat hepatocytes (collagen sandwich) exposed to supplemented citrated human plasma. Format: cell-based. The following applies: for Albumin synthesis (in words) vs plasma with BME amino acid supplementation: 10 mM as only amino acid supplementation of citrated plasma. As for the experimental part: as §1, §2, §3, §4, §5

Where [3] appears, read: citrated human plasma + 5× medium concentrate, day 5 of plasma exposure, vs fully supplemented plasma.

Nine compounds from patent US20040058309A1, “Plasma supplement and use in liver assist systems” (priority 2003, published 2004) can be followed below.

Entries after “also recorded” stand apart in the source; their conditions may differ. Like-named read-outs stand apart in the source and are kept apart here.

In the case of `NC(=O)CC[C@H](N)C(=O)O` [glutamine], the “Urea synthesis rate (in words)” value with Rat hepatocytes [1] (10 mM as only amino acid supplementation of citrated plasma, day 5 of plasma exposure) is “maintained”. The “Albumin synthesis (in words) vs plasma with BME amino acid supplementation” value in the test on Rat hepatocytes [2] (day 5 of plasma exposure) is “significantly less albumin”.
With `[Cl-].[Na+]` [sodium chloride], the “Effect on urea synthesis of removing (or reducing) the component in the plasma supplementation” value in the test with Rat hepatocytes [1] (setting [3]) was “increased; also recorded: enhanced”. The “Effect on albumin synthesis of removing (or reducing) the component in the plasma supplementation” value in the test on Rat hepatocytes [2] (setting [3]) is listed as “increased; also recorded: enhanced”.
As for `NCC(=O)O` [glycine], the “Decrease of urea synthesis rate” value in the test with Rat hepatocytes [1] (10 mM as only amino acid supplementation of citrated plasma, day 5 of plasma exposure, vs BME amino acids) is on record as 43%. Also, the “Albumin synthesis (in words) vs plasma with BME amino acid supplementation” value with Rat hepatocytes [2] (day 5 of plasma exposure) is reported as “significantly less albumin”.
For the compound `C[C@]12CCC(=O)C=C1CC[C@@H]1[C@@H]2[C@@H](O)C[C@@]2(C)[C@H]1CC[C@]2(O)C(=O)CO` [hydrocortisone, reference compound], in the test on Rat hepatocytes [2] (setting [3]), the “Effect on albumin synthesis of removing (or reducing) the component in the plasma supplementation” value was “significantly reduced”.
With `[Cl-].[K+]` [potassium chloride], the “Effect on urea synthesis of removing (or reducing) the component in the plasma supplementation” value in the test with Rat hepatocytes [1] (setting [3]) is reported as “no significant effect”. Also, the “Effect on albumin synthesis of removing (or reducing) the component in the plasma supplementation” value with Rat hepatocytes [2] (setting [3]) is recorded as “no significant effect”.
As to glucagon [reference compound], the “Effect on urea synthesis of removing (or reducing) the component in the plasma supplementation” value in the test with Rat hepatocytes [1] (setting [3]) is “decreased significantly”. Moreover, the “Effect on albumin synthesis of removing (or reducing) the component in the plasma supplementation” value in the test with Rat hepatocytes [2] (setting [3]) is on record as “significantly reduced”.
As for `[Cl-].[Cl-].[Mg+2]` [magnesium chloride], the “Effect on urea synthesis of removing (or reducing) the component in the plasma supplementation” value with Rat hepatocytes [1] is given as “significantly less”. For the same compound, in the test with Rat hepatocytes [2], the “Effect on albumin synthesis of removing (or reducing) the component in the plasma supplementation” value was “significantly less”.
On to `[Ca+2].[Cl-].[Cl-]` [calcium chloride], for which, in the test with Rat hepatocytes [1], the “Effect on urea synthesis of removing (or reducing) the component in the plasma supplementation” value is reported as “significantly less”. Besides, the “Effect on albumin synthesis of removing (or reducing) the component in the plasma supplementation” value in the test with Rat hepatocytes [2] is given as “significantly less”.
As to insulin [reference compound], the “Effect on albumin synthesis of removing (or reducing) the component in the plasma supplementation” value in the test with Rat hepatocytes [2] (setting [3]) is listed as “significantly reduced”.
